Measured values from patent US12440475B2, “Hodgkin lymphoma therapy” (priority 2016, dated 2025).

What was measured:
[1] = system: relapsed-refractory Hodgkin lymphoma; conditions: cited from earlier work
[2] = system: L1236-R100; test: Viable cell count and IC50, bendamustine-resistant cell line; assay type: cell-based, human; conditions: Homo sapiens; R100 cell line
Experimental: (§1) • (a) Five Hodgkin lymphoma cell lines (KMH2, HDML2, L540, L1236 and L426) were cultured separately in the presence of bendamustine, vorinostat and EDO-S101 dissolved in DMSO at 37° C. L1236-derived Hodgkin lymphoma cell lines were selected as they have an acquired stable resistance to bendamustine (R100) or an ability to display continuous growth upon extended exposure to sub-lethal concentrations of bendamustine (R25, R50 and R75). A detailed description of the L1236-R Hodgkin lymphoma cell lines is disclosed in De Filippi et al, ASH 2015, Abstract. #2479. In these tests, the L1236-100R bendamustine resistant strain was used. […] Control cells were cultured in the same final concentration of DMSO. The number of viable cells was assessed at 24, 48 and 72 hours through a Countess™ automated cell counter (Invitrogen), each experiment being repeated three times and the results given being the mean of the three results±SD.

[3] = system: Hodgkin lymphoma cell lines (KMH2, HDML2, L540, L1236 and L426); test: IC50 comparison of bendamustine, vorinostat and EDO-S101, five cell lines; assay type: cell-based, human; conditions: Homo sapiens; range over all cell lines tested, including L1236-R
Experimental: as §1

[4] = system: R100; test: Combination with Brentuximab Vedotin, % survival, R100; assay type: cell-based, human; conditions: Brentuximab Vedotin 0.39 μg/ml (typically 10-fold lower than IC50) with EDO-S101 1.56 μM
Experimental: 1.56 μM of EDO-S101 was administered to two Hodgkin lymphoma cell lines, the bendamustine naïve cell line L1236 and the bendamustine resistant cell line R100. In a second experiment, Brentuximab Vedotin was administered at a concentration of 3.12 μg/ml to the L1236 cell line and at a concentration of 0.39 μg/ml to the R100 cell line. Finally, in a third experiment EDO-S101 and Brentuximab Vedotin were administered in combination to each of the two cell lines at the same concentrations that they were administered in the monotherapy experiments.

For `Cn1c(CCCC(=O)O)nc2cc(N(CCCl)CCCl)ccc21` [bendamustine, reference compound], the “patients resistant to bendamustine” value [1] is given as “about 40%”, the IC50 [2] is given as about 140 µM and the IC50 [3] is given as 11 to 17 µM.
In the case of Brentuximab Vedotin, the “cytotoxic effect in combination with EDO-S101” value [4] is reported as “considerable cytotoxic effect”.
